Active and inactive are the calls of the source. No cut-off for these calls is given here.
What was measured:
Format in all cases: cell-based
[1] = molecular target: T1, Protein cereblon/Androgen receptor (Homo sapiens, UniProt P10275+Q96SW2); assay: PROTAC activity at CRBN/AR in human 22Rv1 cells assessed as induction of AR degradation at 0.01 uM incubated for 24 hrs by Western blot analysis relative to control
[2] = molecular target: T1, Protein cereblon/Androgen receptor; assay: PROTAC activity at CRBN/AR in human 22Rv1 cells assessed as induction of AR degradation at 0.1 uM incubated for 24 hrs by Western blot analysis relative to control
[3] = test system: Protein cereblon/Androgen receptor (Homo sapiens), P10275+Q96SW2 [UNDEFINED MUTATION]; assay: PROTAC activity at CRBN/Androgen receptor splice variant 7 in human 22Rv1 cells assessed as induction of AR-V7 degradation at 0.01 uM incubated for 24 hrs by Western blot analysis relative to control
Sequence of Protein cereblon/Androgen receptor (Homo sapiens), P10275+Q96SW2 [UNDEFINED MUTATION] (Q96SW2 whole entry, looked up, change not shown, one chain of several, canonical isoform): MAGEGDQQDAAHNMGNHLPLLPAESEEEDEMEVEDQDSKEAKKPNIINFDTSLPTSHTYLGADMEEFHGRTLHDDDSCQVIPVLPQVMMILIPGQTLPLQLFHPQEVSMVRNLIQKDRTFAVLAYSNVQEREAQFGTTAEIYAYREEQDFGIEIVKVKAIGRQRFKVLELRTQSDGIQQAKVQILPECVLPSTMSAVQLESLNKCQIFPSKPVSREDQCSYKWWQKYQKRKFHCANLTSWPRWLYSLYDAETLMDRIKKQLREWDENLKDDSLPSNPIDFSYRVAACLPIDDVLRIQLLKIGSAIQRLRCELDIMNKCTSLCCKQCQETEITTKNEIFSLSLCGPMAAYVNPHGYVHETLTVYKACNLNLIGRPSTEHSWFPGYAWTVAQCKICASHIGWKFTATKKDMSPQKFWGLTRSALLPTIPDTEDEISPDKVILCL

[4] = test system: Protein cereblon/Androgen receptor (Homo sapiens), P10275+Q96SW2 [UNDEFINED MUTATION]; assay: PROTAC activity at CRBN/Androgen receptor splice variant 7 in human 22Rv1 cells assessed as induction of AR-V7 degradation at 0.1 uM incubated for 24 hrs by Western blot analysis relative to control
[5] = molecular target: T1, Protein cereblon/Androgen receptor; assay: PROTAC activity at CRBN/AR in human VCaP cells assessed as induction of AR degradation at 0.01 uM incubated for 24 hrs by Western blot analysis relative to control
[6] = molecular target: T1, Protein cereblon/Androgen receptor; assay: PROTAC activity at CRBN/AR in human VCaP cells assessed as induction of AR degradation at 0.1 uM incubated for 24 hrs by Western blot analysis relative to control
[7] = test system: Protein cereblon/Androgen receptor (Homo sapiens), P10275+Q96SW2 [UNDEFINED MUTATION]; assay: PROTAC activity at CRBN/Androgen receptor splice variant 7 in human VCaP cells assessed as induction of AR-V7 degradation at 0.01 uM incubated for 24 hrs by Western blot analysis relative to control
[8] = test system: Protein cereblon/Androgen receptor (Homo sapiens), P10275+Q96SW2 [UNDEFINED MUTATION]; assay: PROTAC activity at CRBN/Androgen receptor splice variant 7 in human VCaP cells assessed as induction of AR-V7 degradation at 0.1 uM incubated for 24 hrs by Western blot analysis relative to control
[9] = molecular target: T2, Protein cereblon/Eukaryotic peptide chain release factor GTP-binding subunit ERF3A (Homo sapiens, UniProt Q96SW2+P15170); assay: Molecular glue activity at CRBN/GSPT1 in human 22Rv1 cells assessed as induction of GSPT1 degradation at 0.01 uM incubated for 24 hrs by Western blot analysis relative to control
T2 sequence (P15170 whole entry, looked up): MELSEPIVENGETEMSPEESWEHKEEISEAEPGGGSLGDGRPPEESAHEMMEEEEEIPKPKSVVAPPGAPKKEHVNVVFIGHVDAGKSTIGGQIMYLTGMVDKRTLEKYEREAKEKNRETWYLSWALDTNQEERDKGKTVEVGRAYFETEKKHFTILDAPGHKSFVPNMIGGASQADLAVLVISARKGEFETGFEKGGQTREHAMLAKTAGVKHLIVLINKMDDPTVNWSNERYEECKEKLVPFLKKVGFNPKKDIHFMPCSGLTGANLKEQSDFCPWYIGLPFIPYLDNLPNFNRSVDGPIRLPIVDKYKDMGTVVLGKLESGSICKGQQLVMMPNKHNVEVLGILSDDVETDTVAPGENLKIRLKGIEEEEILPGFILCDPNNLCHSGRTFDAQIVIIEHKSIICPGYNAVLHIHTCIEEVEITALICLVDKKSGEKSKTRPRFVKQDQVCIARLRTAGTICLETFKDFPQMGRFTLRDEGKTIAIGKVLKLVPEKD
T2 sequence (Q96SW2 whole entry, looked up): as the sequence (Q96SW2 whole entry, looked up, change not shown, one chain of several, canonical isoform) above

[10] = molecular target: T2, Protein cereblon/Eukaryotic peptide chain release factor GTP-binding subunit ERF3A; assay: Molecular glue activity at CRBN/GSPT1 in human 22Rv1 cells assessed as induction of GSPT1 degradation at 0.1 uM incubated for 24 hrs by Western blot analysis relative to control
[11] = molecular target: T1, Protein cereblon/Androgen receptor; assay: PROTAC activity at CRBN/AR in human 22Rv1 cells assessed as induction of AR degradation at 1 uM incubated for 24 hrs by Western blot analysis relative to control
[12] = molecular target: T1, Protein cereblon/Androgen receptor; assay: PROTAC activity at CRBN/AR in human 22Rv1 cells assessed as induction of AR degradation at 5 uM incubated for 24 hrs by Western blot analysis relative to control
[13] = test system: Protein cereblon/Androgen receptor (Homo sapiens), P10275+Q96SW2 [UNDEFINED MUTATION]; assay: PROTAC activity at CRBN/Androgen receptor splice variant 7 in human 22Rv1 cells assessed as induction of AR-V7 degradation at 1 uM incubated for 24 hrs by Western blot analysis relative to control
[14] = test system: Protein cereblon/Androgen receptor (Homo sapiens), P10275+Q96SW2 [UNDEFINED MUTATION]; assay: PROTAC activity at CRBN/Androgen receptor splice variant 7 in human 22Rv1 cells assessed as induction of AR-V7 degradation at 5 uM incubated for 24 hrs by Western blot analysis relative to control
[15] = molecular target: T1, Protein cereblon/Androgen receptor; assay: PROTAC activity at CRBN/AR in human VCaP cells assessed as induction of AR degradation at 1 uM incubated for 24 hrs by Western blot analysis relative to control
[16] = molecular target: T1, Protein cereblon/Androgen receptor; assay: PROTAC activity at CRBN/AR in human VCaP cells assessed as induction of AR degradation at 5 uM incubated for 24 hrs by Western blot analysis relative to control
[17] = test system: Protein cereblon/Androgen receptor (Homo sapiens), P10275+Q96SW2 [UNDEFINED MUTATION]; assay: PROTAC activity at CRBN/Androgen receptor splice variant 7 in human VCaP cells assessed as induction of AR-V7 degradation at 1 uM incubated for 24 hrs by Western blot analysis relative to control
[18] = test system: Protein cereblon/Androgen receptor (Homo sapiens), P10275+Q96SW2 [UNDEFINED MUTATION]; assay: PROTAC activity at CRBN/Androgen receptor splice variant 7 in human VCaP cells assessed as induction of AR-V7 degradation at 5 uM incubated for 24 hrs by Western blot analysis relative to control
[19] = molecular target: T2, Protein cereblon/Eukaryotic peptide chain release factor GTP-binding subunit ERF3A; assay: Molecular glue activity at CRBN/GSPT1 in human 22Rv1 cells assessed as induction of GSPT1 degradation at 1 uM incubated for 24 hrs by Western blot analysis relative to control
[20] = molecular target: T2, Protein cereblon/Eukaryotic peptide chain release factor GTP-binding subunit ERF3A; assay: Molecular glue activity at CRBN/GSPT1 in human 22Rv1 cells assessed as induction of GSPT1 degradation at 5 uM incubated for 24 hrs by Western blot analysis relative to control
[21] = molecular target: T3, Androgen receptor (Homo sapiens) (UniProt P10275); assay: Binding affinity to Androgen receptor in human 22Rv1 cells incubated for 6 hrs by streptavidin pull down based immunoprecipitation analysis
T3 sequence (whole entry): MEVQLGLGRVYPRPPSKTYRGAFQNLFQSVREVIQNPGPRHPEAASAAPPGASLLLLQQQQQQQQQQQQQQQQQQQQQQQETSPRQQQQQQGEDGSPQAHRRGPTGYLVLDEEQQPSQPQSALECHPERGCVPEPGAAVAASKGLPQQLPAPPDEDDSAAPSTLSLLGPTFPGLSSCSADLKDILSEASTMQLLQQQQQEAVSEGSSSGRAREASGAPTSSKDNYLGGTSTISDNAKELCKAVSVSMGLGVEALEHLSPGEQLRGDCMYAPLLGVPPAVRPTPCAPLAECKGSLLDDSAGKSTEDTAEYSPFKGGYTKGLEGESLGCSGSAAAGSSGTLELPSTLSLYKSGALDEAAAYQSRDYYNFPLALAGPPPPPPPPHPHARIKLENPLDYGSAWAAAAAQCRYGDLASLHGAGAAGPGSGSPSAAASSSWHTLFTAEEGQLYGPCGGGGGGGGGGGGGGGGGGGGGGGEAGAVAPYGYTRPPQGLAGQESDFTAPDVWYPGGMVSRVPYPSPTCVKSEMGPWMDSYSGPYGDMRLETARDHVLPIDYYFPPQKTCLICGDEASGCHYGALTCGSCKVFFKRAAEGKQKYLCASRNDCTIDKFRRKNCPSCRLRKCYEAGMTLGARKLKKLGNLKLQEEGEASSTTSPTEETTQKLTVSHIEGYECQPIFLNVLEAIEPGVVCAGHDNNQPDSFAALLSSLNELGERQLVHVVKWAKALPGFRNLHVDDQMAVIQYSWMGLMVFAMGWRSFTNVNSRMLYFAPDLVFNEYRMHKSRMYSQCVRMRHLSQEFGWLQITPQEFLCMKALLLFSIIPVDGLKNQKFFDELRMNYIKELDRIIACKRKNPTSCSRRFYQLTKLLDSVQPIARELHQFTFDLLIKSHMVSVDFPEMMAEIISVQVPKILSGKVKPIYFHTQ

T1 sequence (Q96SW2 whole entry, looked up, one chain of several): as the sequence (Q96SW2 whole entry, looked up, change not shown, one chain of several, canonical isoform) above

Activity [1] | Activity [2] | Activity [3] | Activity [4] | Activity [5] | Activity [6] | Activity [7] | Activity [8] | Activity [9] | Activity [10] | Compound | further results
75.1% | 80.5% | 75.5% | 77.7% | 61.3% | 58.8% | 72.3% | 84.5% | 97.5% | 97.2% | CC(C)(c1ccc(OCc2ccncn2)cc1)c1cc(Cl)c(OCC2CCN(C(=O)CCCCCNc3ccc4c(c3)C(=O)N(C3CCC(=O)NC3=O)C4=O)CC2)c(C#N)c1 (stereo unspecified) | –
48% | 79.3% | 68.5% | 83.9% | < 5% | 63% | < 5% | < 5% | 93.6% | 96.1% | CC(C)(c1ccc(OCC2CCOCC2)cc1)c1cc(Cl)c(OCC2CCN(C(=O)CCCCCNc3ccc4c(c3)C(=O)N(C3CCC(=O)NC3=O)C4=O)CC2)c(C#N)c1 (stereo unspecified) | –
51.3% | 78.3% | 73.9% | 81.2% | 53.6% | 75.6% | < 5% | 48% | 93.2% | 96.8% | CC(C)(c1ccc(OCC2CN(S(C)(=O)=O)C2)cc1)c1cc(Cl)c(OCC2CCN(C(=O)CCCCCNc3ccc4c(c3)C(=O)N(C3CCC(=O)NC3=O)C4=O)CC2)c(C#N)c1 (stereo unspecified) | –
72.5% | 73.5% | 76.8% | 89.1% | 83.9% | 85.1% | 43.6% | 40.1% | 96.6% | 96.1% | CC(C)(c1ccc(OCC2CCOC2)cc1)c1cc(Cl)c(OCC2CCN(C(=O)CCCCCNc3ccc4c(c3)C(=O)N(C3CCC(=O)NC3=O)C4=O)CC2)c(C#N)c1 (stereo unspecified) | –
66.4% | 80.8% | 68.6% | 75% | 78.7% | 78.1% | 49.5% | 29.8% | 95.3% | 96.1% | CC1(COc2ccc(C(C)(C)c3cc(Cl)c(OCC4CCN(C(=O)CCCCCNc5ccc6c(c5)C(=O)N(C5CCC(=O)NC5=O)C6=O)CC4)c(C#N)c3)cc2)COC1 (stereo unspecified) | –
71.5% | 78% | 70.6% | 71.9% | < 5% | 34.5% | < 5% | 40.6% | 95.6% | 96.7% | CC(C)(c1ccc(OCC2CCN(S(C)(=O)=O)CC2)cc1)c1cc(Cl)c(OCC2CCN(C(=O)CCCCCNc3ccc4c(c3)C(=O)N(C3CCC(=O)NC3=O)C4=O)CC2)c(C#N)c1 (stereo unspecified) | –
78.3% | 67.1% | 64.2% | 71% | 82.5% | 81.2% | 34.8% | 27.8% | 96.8% | 96.5% | CC(C)(c1ccc(OCC2COC2)cc1)c1cc(Cl)c(OCC2CCN(C(=O)CCCCCNc3ccc4c(c3)C(=O)N(C3CCC(=O)NC3=O)C4=O)CC2)c(C#N)c1 (stereo unspecified) | –
< 5% | 50.1% | < 5% | 58.5% | < 5% | 21.7% | < 5% | 21.1% | 81.5% | 97.3% | CC(C)(c1ccc(OCc2ccccc2)cc1)c1cc(Cl)c(OCC2CCN(C(=O)CCCCCNc3ccc4c(c3)C(=O)N(C3CCC(=O)NC3=O)C4=O)CC2)c(C#N)c1 (stereo unspecified) | –

Continued, compound first:

Compound | Activity [1] | Activity [2] | Activity [3] | Activity [4] | Activity [5] | Activity [6] | Activity [7] | Activity [8] | Activity [9] | Activity [10] | further results
COc1ccc(C(C)(C)c2ccc(OCC3CCN(C(=O)CCCCCNc4ccc5c(c4)C(=O)N(C4CCC(=O)NC4=O)C5=O)CC3)cc2)cc1 (stereo unspecified) | 38.5% | 79.5% | 6.7% | 57.4% | 20.7% | 83.9% | 23.3% | 54.5% | 88.3% | 94% | –
CC(C)(c1ccc(OCc2cncnc2)cc1)c1cc(Cl)c(OCC2CCN(C(=O)CCCCCNc3ccc4c(c3)C(=O)N(C3CCC(=O)NC3=O)C4=O)CC2)c(C#N)c1 (stereo unspecified) | 80.3% | 85.7% | 75.2% | 74.7% | 72.4% | 74.7% | 84.2% | 94% | 97.6% | 97.5% | –
COc1ccc(C(C)(C)c2cc(Cl)c(OCC3CCN(C(=O)CCCCCNc4ccc(C(=O)N[C@H]5CCC(=O)NC5=O)c(F)c4)CC3)c(C#N)c2)cc1 | 23.9% | < 5% | 14.5% | < 5% | 15.7% | < 5% | < 5% | < 5% | < 5% | < 5% | –
CC(C)(c1ccc(OCC2CCN(C(=O)CCCCCNc3ccc4c(c3)C(=O)N(C3CCC(=O)NC3=O)C4=O)CC2)cc1)c1ccc(OC[C@H](O)CCl)cc1 (stereo partly specified) | 31.4% | 77.4% | 32.8% | 53.2% | 17.1% | 92.2% | 49.9% | 80.7% | 80.3% | 94.2% | Activity [11]: 69.8%; Activity [12]: 75%; Activity [13]: 54.1%; Activity [14]: 63.6%; Activity [15]: 42.5%; Activity [16]: 50.8%; Activity [17]: 46%; Activity [18]: 42%; Activity [19]: 94.5%; Activity [20]: 95.1%
CC(C)(c1ccc(OCCCCl)cc1)c1ccc(OCC2CCN(C(=O)CCCCCNc3ccc4c(c3)C(=O)N(C3CCC(=O)NC3=O)C4=O)CC2)cc1 (stereo unspecified) | 13.9% | 30% | < 5% | 5.1% | < 5% | < 5% | < 5% | 28.6% | 37.3% | 92.8% | –
COc1ccc(C(C)(C)c2cc(Cl)c(OCC3CCN(C(=O)CCCC[C@@H]4SC[C@@H]5NC(=O)N[C@@H]54)CC3)c(C#N)c2)cc1 | – | – | – | – | – | – | – | – | – | – | Activity [21]: Active

Source: ChEMBL document CHEMBL6177998, “Rational Design of Dual Degraders by Incorporating Molecular Glue Structural Features into PROTAC Degraders” (J Med Chem, 2025)
